Data set [1] has as its system LO2 cells. Description: MTT cytotoxicity on human normal cell line LO2 (24 h). It is filed as cell-based. Conditions: for IC50: Homo sapiens, L02, 24 h, read-out: IC50 Values of Human Normal Cell Lines, LO2.
Data set [2] deals with HEK-293T-ACE2^h cells. Description: MTT cytotoxicity assay on host cells (4 h). The format is cell-based, human. Conditions: for CC0 (maximum nontoxic concentration) / TC50 (concentration reducing cell viability by 50%): MTT, 4 h.
Data set [3] has as its system SARS-CoV-2 pseudovirus. Description: microbe, parasite or virus in culture. Conditions: Severe acute respiratory syndrome-related coronavirus, read-out: IC50 (inhibition of pseudovirus entry into host cells).
Data set [4] deals with Beas-2B cells. Description: MTT cytotoxicity on human normal cell line Beas-2B (24 h). The format is cell-based. Conditions: for IC50: Homo sapiens, BEAS-2B, 24 h, read-out: IC50 Values of Human Normal Cell Lines, Beas-2B.
Data set [5] relates to HEK 293 cells. Description: MTT cytotoxicity on human normal cell line HEK 293 (24 h). It is filed as cell-based. Conditions: for IC50: Homo sapiens, HEK293, 24 h, read-out: IC50 Values of Human Normal Cell Lines, HEK 293.
In data set [6] the target is SARS-CoV-2 spike RBD protein (Severe acute respiratory syndrome coronavirus 2, UniProt P0DTC2). As to the kind of experiment: biochemical. The format is binding.
Data set [7] deals with SARS-CoV-2 pseudovirus. Conditions: for IC50: read-out: IC50 (inhibition of pseudovirus entry into host cells).

Consider ten compounds from publication PMC9862759 (Viruses, 2023).

What is called IC50 is the midpoint of a concentration-inhibition curve. What is called Kd is the concentration at which binding is half-saturated. Low values mean higher affinity, high ones lower affinity.

Read-outs that look alike come from different tables or passages of the source.

Consider `O=c1c(O)c(-c2ccc(O)cc2)oc2cc(O)cc(O)c12` [compound 14, Kaempferol], for which the IC50 in data set [1] is more than 200 µM; in data set [3], less than 50 µM; in data set [4], more than 200 µM; in data set [5] it was more than 200 µM; in data set [7], 34.6 ± 7.69 µM. In data set [2], the “CC0 (maximum nontoxic concentration)” value worked out at 200 µM. Moreover, the “TC50 (concentration reducing cell viability by 50%)” value in data set [2] was more than 200 µM. In data set [6], this compound returned a Kd of 18.5 ± 5.49 µM. Further, the “SI (ratio of TC50 to IC50)” value in data set [7] is reported as more than 5.77.

`O=c1c(O)c(-c2ccc(O)c(O)c2)oc2cc(O)cc(O)c12` [compound 15, Quercetin]: the IC50 in data set [1], in data set [4] and in data set [5] was more than 500 µM throughout. In addition, the “CC0 (maximum nontoxic concentration)” value in data set [2] was found to be 300 µM. In addition, the “TC50 (concentration reducing cell viability by 50%)” value in data set [2] was more than 500 µM. This compound had a Kd in data set [6] of 11.2 ± 3.85 µM.

For `O=c1c(O)c(-c2cc(O)c(O)c(O)c2)oc2cc(O)cc(O)c12` [compound 16, Myricetin], the half-maximal inhibitory concentration (IC50) in data set [1], in data set [4] and in data set [5] was more than 500 µM in each case. In addition, the “cytotoxic effect (in words), LO2” value in data set [1] (tested dose of 500 μM) is “did not show any significant cytotoxic effect”. Also, the “cytotoxicity to the host cells (in words)” value in data set [2] (500 μM) is “did not demonstrate any cytotoxicity”. For the same compound, in data set [2], the “CC0 (maximum nontoxic concentration)” value came to 300 µM. Also, the “TC50 (concentration reducing cell viability by 50%)” value in data set [2] was more than 500 µM. In addition, in data set [4] (tested dose of 500 μM), the “cytotoxic effect (in words), Beas-2B” value is listed as “did not show any significant cytotoxic effect”. Moreover, the “cytotoxic effect (in words), HEK 293” value in data set [5] (tested dose of 500 μM) is “did not show any significant cytotoxic effect”. This compound showed a binding signal in data set [6] of 0.60 nm.

For `Oc1cc(O)c2c(c1)O[C@H](c1ccc(O)c(O)c1)[C@H](O)C2` [compound 22, (-)-Epicatechin], the half-inhibitory concentration (IC50) is more than 500 µM in data set [1], 146 ± 20.8 µM in data set [3], more than 500 µM in data set [4] and more than 500 µM in data set [5]. The “CC0 (maximum nontoxic concentration)” value in data set [2] amounted to 300 µM. Moreover, the “TC50 (concentration reducing cell viability by 50%)” value in data set [2] is more than 500 µM. Besides, the “SI (ratio of TC50 to IC50)” value in data set [7] is listed as more than 3.43.

Take `Oc1cc(O)c2c(c1)O[C@H](c1cc(O)c(O)c(O)c1)[C@H](O)C2` [compound 23, (-)-Epigallocatechin]: the half-inhibitory concentration (IC50) in data set [1] is 483.3 ± 1.52 µM; in data set [3], 74.2 ± 10.7 µM; in data set [4], 369 ± 1.7 µM; in data set [5], more than 500 µM. In addition, the “CC0 (maximum nontoxic concentration)” value in data set [2] worked out at 200 µM. For the same compound, in data set [2], the “TC50 (concentration reducing cell viability by 50%)” value amounted to 453.10 ± 4.55 µM. In addition, in data set [7], the “SI (ratio of TC50 to IC50)” value is reported as 6.11.

In the case of `O=C(O[C@@H]1Cc2c(O)cc(O)cc2O[C@@H]1c1ccc(O)c(O)c1)c1cc(O)c(O)c(O)c1` [compound 24, (-)-Epicatechin gallate], the half-inhibitory concentration (IC50) was more than 500 µM in data set [1], 58.8 ± 3.25 µM in data set [3], more than 500 µM in data set [4] and more than 500 µM in data set [5]. Also, the “CC0 (maximum nontoxic concentration)” value in data set [2] is 300 µM. Further, in data set [2], the “TC50 (concentration reducing cell viability by 50%)” value was more than 500 µM. The “SI (ratio of TC50 to IC50)” value in data set [7] is listed as more than 8.51.

Regarding `O=C(O[C@@H]1Cc2c(O)cc(O)cc2O[C@@H]1c1cc(O)c(O)c(O)c1)c1cc(O)c(O)c(O)c1` [compound 25, (-)-Epigallocatechin gallate], the 50% inhibitory concentration (IC50) in data set [1] was 430 ± 6.98 µM; in data set [3] it was less than 50 µM; in data set [4], more than 500 µM; in data set [5] it was more than 500 µM; in data set [7], 31.3 ± 7.4 µM. Besides, the “CC0 (maximum nontoxic concentration)” value in data set [2] came to 300 µM. Further, the “TC50 (concentration reducing cell viability by 50%)” value in data set [2] is more than 500 µM.

Take `O=C(O[C@@H]1Cc2c(O)cc(O)cc2O[C@H]1c1cc(O)c(O)c(O)c1)c1cc(O)c(O)c(O)c1` [compound 26, (-)-Gallocatechin gallate]: the IC50 in data set [1] is 433 ± 8.96 µM; in data set [3], less than 50 µM; in data set [4], more than 500 µM; in data set [5] it was more than 500 µM; in data set [7] it was 43.4 ± 2.93 µM. Besides, the “CC0 (maximum nontoxic concentration)” value in data set [2] worked out at 300 µM. Also, the “TC50 (concentration reducing cell viability by 50%)” value in data set [2] was more than 500 µM. In data set [7], the “SI (ratio of TC50 to IC50)” value is more than 11.52.

In the case of `Oc1cc(O)c2c(c1)O[C@H](c1ccc(O)c(O)c1)[C@@H](O)[C@@H]2c1c(O)cc(O)c2c1O[C@H](c1ccc(O)c(O)c1)[C@H](O)C2` [compound 30, Procyanidin B-4], the IC50 is more than 500 µM in data set [1], 151 ± 28.1 µM in data set [3], more than 500 µM in data set [4] and more than 500 µM in data set [5]. The “CC0 (maximum nontoxic concentration)” value in data set [2] turned out to be 300 µM. In data set [2], the “TC50 (concentration reducing cell viability by 50%)” value is more than 500 µM. Further, the “SI (ratio of TC50 to IC50)” value in data set [7] is recorded as more than 3.30.

On to `Oc1cc(O)c2c(c1)O[C@H](c1ccc(O)c(O)c1)[C@H](O)[C@H]2c1c(O)cc(O)c2c1O[C@H](c1ccc(O)c(O)c1)[C@H](O)[C@H]2c1c(O)cc(O)c2c1O[C@H](c1ccc(O)c(O)c1)[C@H](O)C2` [compound 31, Procyanidin C-1], for which the concentration for half-maximal inhibition (IC50) in data set [1] was more than 500 µM; in data set [3], 173 ± 20.7 µM; in data set [4], more than 500 µM; in data set [5], more than 500 µM. The “CC0 (maximum nontoxic concentration)” value in data set [2] is 300 µM. In data set [2], the “TC50 (concentration reducing cell viability by 50%)” value is more than 500 µM. The “SI (ratio of TC50 to IC50)” value in data set [7] was more than 2.90.
